The source of these data is patent US11406642B2, “DNP and DNP prodrug treatment of neuromuscular, neurodegenerative, autoimmune, developmental, traumatic brain injury, concussion, dry eye disease, hearing loss and/or metabolic diseases” (priority 2016, dated 2022).

The test system of assay [1] is EAE mouse model of Multiple Sclerosis. In words: EAE MS model (clinical score, body weight). The class given is in vivo. The settings on record: for progression of paralysis monitored as Clinical Score: administered 7-days after induction of MOG35-55 myelin peptide; for weight loss / body weight changes: versus Placebo mice. The text has this:
FIG. 1 is a chart illustrating the comparative effect of two compounds of the invention at lowering or blocking progression of paralysis as monitored as a Clinical Score (EAE MS model comparing parent (2,4-DNP) to prodrug (II-38) at equivalent exposures of 5 mpk parent to […] prodrug for efficacy). Legend: diamond—placebo; square—2,4-DNP 5 mpk; triangle—II-38 8 mpk; x—II-38 16 mpk; asterisk—II-38 80 mpk. P values by Ordinal Regression: 2,4-DNP 5 mpk=0.0192; II-38 8 mpk=0.000954; II-38 16 mpk=0.000124; II-38 80 mpk=0.00014 (results from logistic regression model using ordinal package from cran project, www.cran.r-project.org).
Legend: diamond—placebo; square—2,4-DNP 5 mpk; triangle—II-38 8 mpk; x—II-38 16 mpk; asterisk—II-38 80 mpk. All doses significant to preserving body weight. P values by Ordinal Regression: 2,4-DNP 5 mpk=0.0188; II-38 8 mpk<0.0001; II-38 16 mpk=0.044; II-38 80 mpk<0.0001.
In one embodiment, the compositions and methods of the invention relate to a pharmacological intervention that abolishes overt ROS production and improves the quality of the mitochondrial population by mitophagy, induces Brain Derived Neurotrophin Factor (BDNF), increases cAMP, and/or remodels cellular expression. In one embodiment, a drug of the invention thus becomes “disease modifying.” In one embodiment, a prodrug of DNP (II-38) was administered to a mouse model of Multiple Sclerosis, called the EAE, 7-days after induction of the MOG35-55 myelin peptide. The ProDrug of DNP, II-38, was administered at multiples of exposure to 2,4-DNP or DNP. […] Even though DNP historically was used in the 1930's for weight loss at high doses, here it is shown that it can paradoxically be repositioned to prevent wasting associated with neurodegenerative/autoimmune diseases at low doses.

The test system of assay [2] is noise induced hearing loss. Put plainly: In vivo noise exposure, Compound Action Potential threshold. The settings on record: for CAP threshold (compound + Noise): noise 8 h, 105 dB, 8-16 kHz, 5 days oral gavage q.d., 2,4-DNP 5 mpk, II-38 80 mpk, 1-week post exposure; for threshold lower than Noise alone group: same study, Noise alone 25 dB. Details: species or system Rats. The method, then:
In vivo Noise Exposure Pilot DNP (2,4-DNP) & Prodrug of DNP (II-38): Rats, N=6/group: control, noise alone, noise+2,4-DNP (5 mpk), noise+II-38 (80 mpk). Noise exposure: 8 h, 105 dB, noise band 8-16 kHz. Treatment duration 5 days oral gavage q.d. starting day of noise. Endpoint: Compound Action Potential (CAP) recorded from the round window membrane 1-week post exposure. Threshold: intensity in dB SPL needed to produce 4 μV CAP amplitude.

Regarding `O=C(Oc1ccc([N+](=O)[O-])cc1[N+](=O)[O-])N1CCOCC1` [II-38, 2,4-Dinitrophenyl morpholine-4-carboxylate], in assay [1], the “progression of paralysis monitored as Clinical Score” value is given as “striking effect at lowering or blocking progression of paralysis” and the “weight loss / body weight changes” value is reported as “preventing weight loss seen in the Placebo mice”. Further, in assay [2], the “CAP threshold (compound + Noise)” value was 5 dB and the “threshold lower than Noise alone group” value is given as “approximately 20 dB”.

For `O=[N+]([O-])c1ccc(O)c([N+](=O)[O-])c1` [2,4-DNP, 2,4-dinitrophenol], in assay [1], the “progression of paralysis monitored as Clinical Score” value is recorded as “striking effect at lowering or blocking progression of paralysis” and the “weight loss / body weight changes” value is “preventing weight loss seen in the Placebo mice”. Further, in assay [2], the “CAP threshold (compound + Noise)” value is 15 dB and the “threshold lower than Noise alone group” value is listed as “about 10 dB”.
